Target: T1, recombinant human neutral endopeptidase (NEP, EC 3.4.24.11) (Homo sapiens, UniProt P08473)
T1 construct: made in house; host or cells: insect cells
Assay: in vitro inhibition of recombinant human neutral endopeptidase (fluorescence lifetime assay)
Assay type: biochemical
Settings: 1 hour pre-incubation, read after 1 hour at room temperature, pH 7.4, substrate Cys(PT14)-Arg-Arg-Leu-Trp-OH 0.7 μM
Excerpt: The activity of a compound according to the present invention can be assessed by the following in vitro & in vivo methods and/or by the following in vitro & in vivo methods well-described in the art. See A fluorescence lifetime-based assay for protease inhibitor profiling on human kallikrein 7 Doering K, Meder G, Hinnenberger M, Woelcke J, Mayr L M, Hassiepen U Biomol Screen. 2009 January; 14(1):1-9.
In particular, the in vitro inhibition of recombinant human neutral endopeptidase (NEP, EC 3.4.24.11) can be determined as follows:
Recombinant human neutral endopeptidase (expressed in insect cells and purified using standard methods, final concentration 7 pM) is pre-incubated with test compounds at various concentrations for 1 hour at room temperature in 10 mM sodium phosphate buffer at pH 7.4, containing 150 mM NaCl and 0.05% (w/v) CHAPS. The enzymatic reaction is started by the addition of a synthetic peptide substrate Cys(PT14)-Arg-Arg-Leu-Trp-OH to a final concentration of 0.7 μM. Substrate hydrolysis leads to an increase fluorescence lifetime (FLT) of PT14 measured by the means of a FLT reader as described by Doering et al. (2009). The effect of the compound on the enzymatic activity was determined after 1 hour (t=60 min) incubation at room temperature. The IC50 values, corresponding to the inhibitor concentration showing 50% reduction of the FLT values measured in absence of inhibitor, are calculated from the plot of percentage of inhibition vs. inhibitor concentration using non-linear regression analysis software.

T1 sequence (P08473 whole entry): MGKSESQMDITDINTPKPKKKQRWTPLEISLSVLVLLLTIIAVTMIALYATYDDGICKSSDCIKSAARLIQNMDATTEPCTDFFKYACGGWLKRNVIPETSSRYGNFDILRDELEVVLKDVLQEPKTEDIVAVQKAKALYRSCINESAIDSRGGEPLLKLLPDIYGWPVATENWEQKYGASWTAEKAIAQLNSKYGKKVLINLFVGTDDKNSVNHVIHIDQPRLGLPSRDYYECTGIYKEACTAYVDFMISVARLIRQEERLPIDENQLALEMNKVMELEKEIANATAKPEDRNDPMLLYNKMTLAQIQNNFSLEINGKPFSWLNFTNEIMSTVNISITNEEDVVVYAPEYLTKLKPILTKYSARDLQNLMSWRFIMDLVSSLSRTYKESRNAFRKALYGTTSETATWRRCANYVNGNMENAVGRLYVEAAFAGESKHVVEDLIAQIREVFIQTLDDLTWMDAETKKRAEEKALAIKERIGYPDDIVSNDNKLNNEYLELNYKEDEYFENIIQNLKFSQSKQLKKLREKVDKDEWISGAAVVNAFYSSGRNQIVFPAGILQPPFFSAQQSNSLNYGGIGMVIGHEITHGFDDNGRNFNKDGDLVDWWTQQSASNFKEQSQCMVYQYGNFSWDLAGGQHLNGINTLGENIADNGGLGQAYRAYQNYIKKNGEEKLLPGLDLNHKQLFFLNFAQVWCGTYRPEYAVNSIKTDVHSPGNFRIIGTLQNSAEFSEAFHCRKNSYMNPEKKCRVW

SMILES | IC50
O=C(O)CC1(C(=O)N[C@@H](Cc2ccc(-c3ccccc3)cc2)C(=O)N2CCC[C@H]2C(=O)O)CCCC1 [Example 1-1, (S)-1-((S)-3-(biphenyl-4-yl)-2-(1-(carboxymethyl)cyclopentanecarboxamido)propanoyl)pyrrolidine-2-carboxylicacid] | 12 nM
O=C(O)CC1(C(=O)N[C@@H](Cc2ccc(-c3ccccc3)cc2)C(=O)O)CCCC1 [Example 1-7] | 15 nM
O=C(O)CC1(C(=O)N[C@@H](Cc2ccc(-c3ccccc3Cl)cc2)c2nnn[nH]2)CCCC1 [Example 8-1] | 6 nM
Cc1cccc(-c2ccc(C[C@H](NC(=O)C3(CC(=O)O)CCCC3)c3nnn[nH]3)cc2)c1 [Example 9-1, (S)-2-(1-(2-(3′-methylbiphenyl-4-yl)-1-(1H-tetrazol-5-yl)ethylcarbamoyl)cyclopentyl)acetic acid] | 40 nM
COc1cccc(-c2ccc(C[C@H](NC(=O)C3(CC(=O)O)CCCC3)c3nnn[nH]3)cc2)c1 [Example 9-2] | 11 nM
O=C(O)CC1(C(=O)N[C@@H](Cc2ccc(-c3ccccc3)cc2)c2nnn[nH]2)CCCC1 [Example 31-2, {1-[(S)-2-Biphenyl-4-yl-1-(1H-tetrazol-5-yl)-ethylcarbamoyl]-cyclopentyl}-acetic acid] | 10 nM

Source: patent US8877815B2, “Substituted carbamoylcycloalkyl acetic acid derivatives as NEP” (Novartis AG, priority 2010, dated 2014)
